ChEMBL document CHEMBL4619784, “Exploiting Existing Molecular Scaffolds for Long-Term COVID Treatment” (ACS Med Chem Lett, 2020)
pEC50: −log10 of the molar value.

System: SARS-CoV
Assay: Antiviral activity against SARS coronavirus Urbani infected in monkey Vero E6 cells assessed as reduction in virus-induced cytopathogenicity incubated for 48 hrs by CellTiter-Glo luminescent cell viability assay
Assay type: functional, organism-based
Conditions: Severe acute respiratory syndrome-related coronavirus, Vero C1008, 48 h

Cc1ccc(N)cc1C(=O)N[C@H](C)c1cccc2ccccc12
pEC50: 5.00
